According to US8389276B2 (priority 2001, dated 2013):
Like-named read-outs stand apart in the source and are kept apart here.

Key:
wild type immortal cells = test: Death rate of wild type immortalized cells after death stimuli (DAPI staining, FACS); assay type: cell-based, mouse; conditions: 24 hours, DAPI 1 μg/ml, FIG. 3A
Protocol: (§1) This example relates to determining that immortalized Bax/Bak doubly deficient cells are resistant to wide variety of death stimuli, including BH-3 only proapoptotic proteins. To test whether immortal Bax/Bak double deficient cells behave like primary Bax/Bak double deficient cells in resisting intrinsic cell death stimuli, wild type and Bax/Bak doubly deficient cells were treated with serum deprivation, etoposide (100 μM), staurosporin (4 μM), or brefeldin A (10 μg/ml). 24 hours later, cells were stained with DAPI (1 μg/ml), and death rate determined by FACS. Wild type immortal cells were killed by each of these death stimuli. This is consistent with the findings in the primary MEF cells.

[1] = tested on: Bax/Bak doubly deficient cells; test: Death rate of Bax/Bak doubly deficient immortalized cells after death stimuli (DAPI staining, FACS); assay type: cell-based, mouse; conditions: Bax/Bak doubly deficient immortal cells, 24 hours, DAPI 1 μg/ml, FIG. 3A
Protocol: as §1

[2] = tested on: primary fibroblasts isolated from Bax/Bak double deficient mice; assay type: cell-based, mouse
Source text: (§2) To study how the apoptotic machinery is regulated, mice deficient in both Bax and Bak have been produced. […] The characteristics of Bax/Bak double deficient mice are described in greater detail in our publications: Lindsten, T., Ross, A. J., King, A., Zong, W. X., Rathmell, J. C., Shiels, H. A., Ulrich, E., Waymire, K. G., Mahar, P., Frauwirth, K., Chen, Y., Wei, M., Eng, V. M., Adelman, D. M., Simon, M. C., Ma, A., Golden, J. A., Evan, G., Korsmeyer, S. J., MacGregor, G. R., and Thompson, C.

[3] = tested on: thymocytes isolated from the Bax/Bak double deficient mice
Source text: as §2

[4] = primary fibroblasts from Bax/Bak double deficient mice

## C[C@H]1CCC/C=C/[C@@H]2C[C@H](O)C[C@H]2[C@H](O)/C=C/C(=O)O1 [brefeldin A]
Wild type immortal cells; brefeldin A 10 μg/ml
  cell death (death rate by FACS): killed
[1]; brefeldin A 10 μg/ml
  cell death (death rate by FACS): survived
[2]; [4]
  resistance to death stimulus: resistant

## COc1cc([C@@H]2c3cc4c(cc3[C@@H](O[C@@H]3O[C@@H]5CO[C@@H](C)O[C@H]5[C@H](O)[C@H]3O)[C@H]3COC(=O)[C@H]23)OCO4)cc(OC)c1O [etoposide]
Wild type immortal cells; etoposide 100 μM
  cell death (death rate by FACS): killed
[1]; etoposide 100 μM
  cell death (death rate by FACS): survived
[2]; [4]
  resistance to death stimulus: resistant
[3]
  resistance to induced cell death: resistant

## CN[C@@H]1C[C@H]2O[C@@](C)([C@@H]1OC)n1c3ccccc3c3c4c(c5c6ccccc6n2c5c31)C(=O)NC4 [staurosporin]
Wild type immortal cells; staurosporin 4 μM
  cell death (death rate by FACS): killed
[1]; staurosporin 4 μM
  cell death (death rate by FACS): survived
[2]
  resistance to death stimulus: resistant

## tharpsigargin
[2]; [4]
  resistance to death stimulus: resistant

## tunicamycin
[2]; [4]
  resistance to death stimulus: resistant
